The source of these data is US12594276B2, “Inhibitors of human immunodeficiency virus replication” (ViiV Healthcare UK (No.5) Limited, priority 2024, dated 2026).

For data set [1], the system named is recombinant NL4-3 virus (nef section replaced with Renilla luciferase gene) in MT-2 cells. Briefly: HIV cell culture assay (antiviral activity, luciferase readout). It is filed as cell-based. Conditions: Renilla, NL43, MT-2 cells infected for 4-5 days with recombinant NL4-3 Renilla luciferase virus. A digest of the protocol:
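293T transfection → virus harvest at 2-3 d → titer in MT-2 by luciferase. MT-2 + virus + serial cpd dilutions, 4-5 d. Live-cell luciferase read; EC50 by median effect fit.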

Data set [2] is described as follows: Compound cytotoxicity, XTT-based colorimetric assay. It is filed as cell-based. As to conditions: human; uninfected MT2 cells, day 4, XTT; read-out: CC50. A digest of the protocol:
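Cells seeded as for the antiviral assay but left uninfected (MT2). Compound exposure continued to day 4. XTT reagent added and colour read. CC50 calculated.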

For `Cc1cc(C2CCC(F)(F)CC2)nc2nc([C@H](Cc3cc(F)cc(F)c3)NC(=O)Cn3nc(C4CC4)c4c3C[C@@H]3C[C@H]43)n(-c3ccc(Cl)c4c(NS(C)(=O)=O)nn(CC(=O)NCCOC(C)C)c34)c(=O)c12` (atropisomer, axis not shown; (P)) [Example 393, N-[(1S)-1-[(3P)-3-[4-chloro-3-methanesulfonamido-1-({[2-(propan-2-yloxy)ethyl]carbamoyl}methyl)-1H-indazol-7-yl]-7-(4,4-difluorocyclohexyl)-5-methyl-4-oxo-3H,4H-pyrido[2,3-d]pyrimidin-2-yl]-2-(3,5-difluorophenyl)ethyl]-2-[(2S,4S)-9-cyclopropyl-7,8-diazatricyclo[4.3.0.0^2,^4]nona-1(6),8-dien-7-yl]acetamide], the EC50 in data set [1] turned out to be 35 pM. Moreover, in data set [2], the CC50 at 4 days is over 20000 pM.

Regarding `COCCCn1nc(NS(C)(=O)=O)c2c(Cl)ccc(-n3c([C@H](Cc4cc(F)cc(F)c4)NC(=O)Cn4nc(C5CC5)c5c4C[C@@H]4C[C@H]54)nc4nc(C5CCC(F)(F)CC5)cc(C5CC5)c4c3=O)c21` (atropisomer, axis not shown; (P)) [Example 376, N-[(1S)-1-[(3P)-3-[4-chloro-3-methanesulfonamido-1-(3-methoxypropyl)-1H-indazol-7-yl]-5-cyclopropyl-7-(4,4-difluorocyclohexyl)-4-oxo-3H,4H-pyrido[2,3-d]pyrimidin-2-yl]-2-(3,5-difluorophenyl)ethyl]-2-[(2S,4S)-9-cyclopropyl-7,8-diazatricyclo[4.3.0.0^2,^4]nona-1(6),8-dien-7-yl]acetamide], the EC50 in data set [1] turned out to be 16 pM. The CC50 at 4 days in data set [2] is over 20000 pM.

With `Cc1cc(C2CCC(F)(F)CC2)nc2nc([C@H](Cc3cc(F)cc(F)c3)NC(=O)Cn3nc(C(F)F)c4c3C(F)(F)[C@@H]3C[C@H]43)n(-c3ccc(Cl)c4c(NS(C)(=O)=O)nn(CCN5CC(F)(F)C5)c34)c(=O)c12` (atropisomer, axis not shown; (P)) [Example 229, N-[(1S)-1-[(3P)-3-{4-chloro-1-[2-(3,3-difluoroazetidin-1-yl)ethyl]-3-methanesulfonamido-1H-indazol-7-yl}-7-(4,4-difluorocyclohexyl)-5-methyl-4-oxo-3H,4H-pyrido[2,3-d]pyrimidin-2-yl]-2-(3,5-difluorophenyl)ethyl]-2-[(2S,4R)-9-(difluoromethyl)-5,5-difluoro-7,8-diazatricyclo[4.3.0.0^2,4]nona-1(6),8-dien-7-yl]acetamide], the EC50 in data set [1] worked out at 13 pM. Moreover, the CC50 at 4 days in data set [2] is over 50000 pM.

As for `Cc1cc(C2(F)CCC(F)(F)CC2)nc2nc([C@H](Cc3cc(F)cc(F)c3)NC(=O)Cn3nc(C(F)F)c4c3C(F)(F)[C@@H]3C[C@H]43)n(-c3ccc(Cl)c4c(NS(C)(=O)=O)nn(CCN5C[C@H]6CC[C@@H](C5)O6)c34)c(=O)c12` (atropisomer, axis not shown; (P)) [Example 589, N-[(1S)-1-[(3P)-3-(4-chloro-3-methanesulfonamido-1-{2-[(1R,5S)-8-oxa-3-azabicyclo[3.2.1]octan-3-yl]ethyl}-1H-indazol-7-yl)-5-methyl-4-oxo-7-(1,4,4-trifluorocyclohexyl)-3H, 4H-pyrido[2,3-d]pyrimidin-2-yl]-2-(3,5-difluorophenyl)ethyl]-2-[(2S,4R)-9-(difluoromethyl)-5,5-difluoro-7,8-diazatricyclo[4.3.0.0^2,^4]nona-1(6),8-dien-7-yl]acetamide], the EC50 in data set [1] is 5 pM. In data set [2], the CC50 at 4 days was over 20000 pM.
